# Assay results published in article PMC12075751 (Nature Communications, 2025).
# Columns and labels:
# FABP4 [1] = experiment: IHC of FABP4 in tibial bone marrow, OVX mice, oral gavage study; assay type: in vivo, mouse; conditions: BMS vs ALD
# PINP = experiment: ELISA of serum PINP, OVX mice, oral gavage study; assay type: in vivo, mouse; conditions: vs Model
# CTX-1 = experiment: ELISA of serum CTX-1, OVX mice, oral gavage study; assay type: in vivo, mouse
# FABP4 [2] = experiment: ELISA of serum FABP4, OVX mice, oral gavage study; assay type: in vivo, mouse; conditions: 28 days daily oral gavage, ALD […], BMS 10 mg/kg
# OVX mice [3] = experiment: H&E staining of bone marrow adipose tissue, OVX mice, oral gavage study; assay type: in vivo, mouse; conditions: BMS vs ALD
# OVX mice [4] = assay type: in vivo, mouse; conditions: BMS 10 mg/kg oral
# PK analysis in SD rats = assay type: in vivo, rat
# human BMSCs = experiment: Osteoblastic differentiation of BMSCs, Alizarin Red staining; assay type: cell-based; conditions: FABP4 25 or 50 ng/mL, with BMS 5 or 10 μM, 21-day induction
# OVX mice [5] = assay type: in vivo, mouse
# TRAP, c-Fos, NFATc1 = experiment: Western Blotting of OCs differentiation marker proteins; assay type: cell-based, mouse; conditions: OCs + BMS
# OVX mice [6] = assay type: in vivo, mouse; conditions: BMS 10 mg/kg oral; remark: listed apart in the source
# OVX mice [7] = experiment: Three-point bending test on femoral midshaft, OVX mice, oral gavage study; assay type: in vivo, mouse; conditions: oral administration of BMS
# BMMs = experiment: OCs formation from BMMs; assay type: cell-based, mouse; conditions: 25 ng/mL FABP4 during RANKL induction of BMMs
# OCs [8] = experiment: Bone resorption activity of mature OCs on bovine bone slices; assay type: cell-based, mouse; conditions: SEM
# OCs [9] = experiment: F-actin staining of OCs; assay type: cell-based, mouse; conditions: vs group with only RANKL and M-CSF
# [10] = tested on: intracellular Ca2+ in OCs; experiment: Ca2+ concentration detection in OCs; assay type: cell-based, mouse; conditions: OCs + FABP4 (25 ng/mL)
# [11] = OVX mice, BMS 10 mg/kg oral, 28 days
molecule,measurement,setting,value
"NCCCC(O)(P(=O)(O)O)P(=O)(O)O [ALD, alendronate sodium]",FABP4 protein expression in bone marrow (IHC),FABP4 [1],no significant difference
same,bone formation (serum PINP),PINP,little effect
same,bone resorption (serum CTX-1),CTX-1,reduced
same,serum FABP4 levels vs Model group,FABP4 [2],significantly reduced
same,bone marrow fat tissue (H&E staining),OVX mice [3],no significant difference
CCc1c(-c2ccccc2)c(-c2ccccc2)nn1-c1ccccc1-c1cccc(OCC(=O)O)c1 [BMS309403],bone resorption in vivo (TRAP staining of tibia sections),OVX mice [4],inhibitory effect
same,Cl,"PK analysis in SD rats; IV 2.0 mg/kg, G1-Mean (n = 3)",691.37 mL/h/kg
same,MRT(0-∞),"PK analysis in SD rats; IV 2.0 mg/kg, G1-Mean (n = 3)",50.4 min
same,Vz,"PK analysis in SD rats; IV 2.0 mg/kg, G1-Mean (n = 3)",1734.16 mL/kg
same,Cmax,"PK analysis in SD rats; IV 2.0 mg/kg, G1-Mean (n = 3), listed as BMS, 2 mg/kg",7094.95 ng/mL
same,AUC(0-t),"PK analysis in SD rats; PO 10.0 mg/kg, G2-Mean (n = 3)",5527.36 ng·h/mL
same,T1/2,"PK analysis in SD rats; PO 10.0 mg/kg, G2-Mean (n = 3), listed as BMS, 10 mg/kg",3.16 h
same,osteogenic differentiation capacity of BMSCs (Alizarin Red staining),human BMSCs,neither the FABP4 protein nor its inhibitor affected
same,efficacy in femur compared to ALD,"OVX mice [5]; BMS 10 mg/kg, 7.7 times the ALD dose ([…]), oral",did not achieve the same efficacy
same,femoral BMD,OVX mice [5]; [11],increased
same,"trabecular thickness (Tb.Th), distal femur",OVX mice [5]; [11],increased
same,"trabecular number (Tb.N), distal femur","OVX mice [5]; OVX mice, BMS 10 mg/kg oral, 28 days, listed as BMS",increased
same,"TRAP, c-Fos, and NFATc1 protein levels","TRAP, c-Fos, NFATc1",suppression
same,bone resorption (serum CTX-1),CTX-1,reduced
same,"BMD, L5 lumbar vertebra",OVX mice [6],significantly improving
same,"Tb.N, L5 lumbar vertebra",OVX mice [6],significantly improving
same,"Tb.Th, L5 lumbar vertebra",OVX mice [6],significantly improving
same,"bone volume/total volume (BV/TV), L5 lumbar vertebra",OVX mice [6],significantly improving
same,"trabecular separation (Tb.Sp), L5 lumbar vertebra",OVX mice [6],significantly improving
same,"bone stiffness, femoral midshaft",OVX mice [7],improved
same,"elastic modulus, femoral midshaft",OVX mice [7],improved
"FABP4: recombinant FABP4 protein (MCE, cat#HY-P70293) (protein, UniProt P04117 2-132, looked up) Fatty acid-binding protein, …: CDAFVGTWKLVSSENFDDYMKEVGVGFATRKVAGMAKPNMIISVNGDLVTIRSESTFKNTEISFKLGVEFDEITADDRKVKSIITLDGGALVQVQKWDGKSTTIKRKRDGDKLVVECVMKGVTSTRVYERA",formation of OCs (TRAP staining),BMMs,significantly promoted the formation of OCs
same,osteogenic differentiation capacity of BMSCs (Alizarin Red staining),human BMSCs,neither the FABP4 protein nor its inhibitor affected
same,bone resorption by mature OCs on bovine bone slices,OCs [8],enhanced bone resorption
same,F-actin / bone skeleton structure of OCs,OCs [9],more regular and distinct bone skeleton structure with abundant F-actin
same,intracellular calcium levels in OCs,[10],significant increase
